How the values were obtained:
[1] = system: patients with PH post-LVAD implantation; assay: Phase 2 study in PH post-LVAD implantation: serum NT-proBNP; assay type: in vivo, human; settings: 10 mg once daily
Experimental: This is a double-blind, placebo-controlled, multicenter, parallel-group Phase 2 study assessing the efficacy and safety of macitentan in PH post-LVAD implantation. Approximately 57 adult patients with PH post-LVAD implantation were randomized (1:1) to receive either macitentan 10 mg, or matching placebo, once daily orally.
A blood sample is drawn at Randomization (Visit 2) and EOT (Visit 5) for the analysis of serum NT-proBNP. See, Table 12 for serum NT-proBNP at Week 12 compared to baseline for the FAS.
NT-proBNP is summarized by time point and treatment group using descriptive statistics as well as geometric means and CVs. The ratio of Week 12 to Baseline NT-proBNP is summarized similarly. The ratio versus Baseline in NT-proBNP is log-transformed and analyzed using an ANCOVA with covariates for treatment group and Baseline log NT-proBNP.

[2] = cited from earlier work

In the case of `CCCNS(=O)(=O)Nc1ncnc(OCCOc2ncc(Br)cn2)c1-c1ccc(Br)cc1` [Macitentan, propylsulfamic acid [5-(4-bromo-phenyl)-6-[2-(5-bromo-pyrimidin-2-yloxy)-ethoxy]-pyrimidin-4-yl]-amide], the “NT-proBNP at Week 12/EOT, Mean (std)” value ([1]; FAS, n 22) is reported as 2435.4 (2620.75) ng/L, the “NT-proBNP at Week 12/EOT, Median” value ([1]; FAS, n 22) is reported as 1098.0 ng/L and the “NT-proBNP (Geometric mean ratio − 1) × 100%” value ([1]; Week 12, FAS) is reported as 10.9%. For the same compound, the “NT-proBNP, Comparison to Placebo, Geometric Mean Ratio” value ([1]; Week 12, FAS) was 1.1086, the “NT-proBNP Ratio to Baseline, Mean (std)” value ([1]; Week 12: Baseline, FAS, n 22) was 0.8 (0.57) and the “NT-proBNP Ratio to Baseline, Median” value ([1]; Week 12: Baseline, FAS, n 22) was 0.6. The “Flushing/feeling of warmth/redness of face and/or hands, Frequency observed with macitentan 10 mg” value [2] was “Uncommon”, the “Headache, Frequency observed with macitentan 10 mg” value [2] was “Very” and the “Photophobia, Frequency observed with macitentan 10 mg” value [2] was “Not known”. For the same compound, the “Sinusitis/rhinitis/nasal congestion, Frequency observed with macitentan 10 mg” value [2] was “Common”.
